{
  "source": "paper PMC4896643",
  "about": "(Science signaling, 2016)",
  "key": {"ERα-SRC3 interaction": {"system": "ERα-SRC3 interaction", "assay": "tr-FRET assay of SRC3 binding to ERα", "type": "biochemical"}, "[1]": {"system": "primary bovine aortic endothelial cells (BAECs)", "assay": "eNOS activation", "type": "cell-based", "conditions": "for eNOS / NOS activity: 15 min"}, "[2]": {"system": "ovariectomized C57BL/6 mice", "assay": "gene regulation and signaling pathway activation in tissues in vivo"}, "MCF-7 cells [3]": {"system": "MCF-7 cells", "assay": "MCF-7 cell proliferation", "conditions": "6 days, WST assay"}, "MCF-7 cells [4]": {"system": "MCF-7 cells", "assay": "RNA-Seq transcriptional profiling", "conditions": "for number of genes regulated: 10 nM E2 or 1 μM PaPE-1, P<0.05, fold change >2"}, "ERα-knockout mice": {"system": "ERα-knockout mice", "assay": "effects in ERα-knockout", "conditions": "ERKO mice"}, "MCF-7 cells [5]": {"system": "MCF-7 cells", "assay": "ChIP-Seq of ERα, ERK2, pSer5 RNA Pol II"}, "[6]": {"system": "ovariectomized C57BL/6 mice", "assay": "metabolic effects in ovariectomized mice"}, "MCF-7 cells [7]": {"system": "MCF-7 cells", "assay": "Western blot of signaling pathway activation in MCF-7 cells"}, "[8]": {"system": "ovariectomized female mice", "assay": "reproductive tissue and thymus effects in ovariectomized mice"}, "ovariectomized mice": {"system": "ovariectomized mice", "assay": "carotid artery reendothelialization after perivascular electric injury"}},
  "note": "“Also recorded” adds a separate entry of the source.",
  "data": [
    {"smiles": "CC/C(=C(\\c1ccc(O)cc1)c1ccc(OCCN(C)C)cc1)c1ccccc1", "note": "[OH-Tam, trans-hydroxytamoxifen]", "values": [
      {"measurement": "reversal of the ER-SRC3 interaction promoted by E2", "setting": "ERα-SRC3 interaction", "value": "reversed the ER-SRC3 interaction"}
    ]},
    {"smiles": "CC(=O)NCCNC(=O)CCC(C)(c1ccc(O)cc1)c1ccc(O)cc1", "note": "[PaPE-4]", "values": [
      {"measurement": "eNOS / NOS activity", "setting": "[1]", "value": "increased NOS activity"}
    ]},
    {"smiles": "C[C@]12CC[C@@H]3c4ccc(O)cc4CC[C@H]3[C@@H]1CC[C@@H]2O", "note": "[E2, estradiol]", "values": [
      {"measurement": "SRC3 binding to ERα-ligand complex", "setting": "ERα-SRC3 interaction; coactivator titration", "value": "bound with high affinity"},
      {"measurement": "eNOS / NOS activity", "setting": "[1]", "value": "activated by E2"},
      {"measurement": "eNOS / NOS stimulation with ICI", "setting": "[1]; plus antiestrogen ICI 182,780", "value": "fully attenuated by ICI"},
      {"measurement": "mTOR signaling (S6 phosphorylation) in liver and skeletal muscle", "setting": "[2]; injected, 2h", "value": "effective in inducing mTOR signaling"},
      {"measurement": "signaling pathway stimulation in reproductive tissues (uterus and mammary gland)", "setting": "[2]; injected, 2h", "value": "stimulated reproductive tissues"},
      {"measurement": "gene expression changes in uterus", "setting": "[2]; pellets, qPCR", "value": "induced gene expression changes in uterus"},
      {"measurement": "proliferation of MCF-7 cells", "setting": "MCF-7 cells [3]", "value": "potently stimulated proliferation"},
      {"measurement": "regulated genes blocked by MAPK inhibitor AZD6244", "setting": "MCF-7 cells [4]; 1 μM AZD6244 pretreatment, 4 h", "value": "~ 23%"},
      {"measurement": "regulated genes blocked by mTOR pathway inhibitor PP242", "setting": "MCF-7 cells [4]; 1 μM PP242 pretreatment, 4 h", "value": 40, "unit": "%"},
      {"measurement": "number of genes regulated", "setting": "MCF-7 cells [4]; 4h", "value": "~1500", "unit": "genes"},
      {"measurement": "number of genes regulated", "setting": "MCF-7 cells [4]; 24h", "value": "about 3000 genes"},
      {"measurement": "blood triglycerides", "setting": "ERα-knockout mice", "value": "did not decrease blood triglycerides"},
      {"measurement": "suppression of liver FASN and SREBP1c gene expression", "setting": "ERα-knockout mice", "value": "lost in ERKO mice"},
      {"measurement": "uterine growth", "setting": "ERα-knockout mice", "value": "did not stimulate uterine growth"},
      {"measurement": "ability to diminish body weight gain after ovariectomy", "setting": "ERα-knockout mice; 3 weeks", "value": "lost"},
      {"measurement": "ERK2 recruitment", "setting": "MCF-7 cells [5]", "value": "caused recruitment of ERK2 to enhancer regions together with ERα"},
      {"measurement": "ERα recruitment to chromatin", "setting": "MCF-7 cells [5]", "value": "recruited to chromatin"},
      {"measurement": "food consumption", "setting": "[6]; 3 weeks", "value": "early drop in food intake"},
      {"measurement": "liver FASN and SREBP-1c gene expression", "setting": "[6]; 3 weeks", "value": "reduced"},
      {"measurement": "body weight gain after ovariectomy", "setting": "[6]; 3 weeks, pellets", "value": "suppressed; also recorded: reduced body weight gain"},
      {"measurement": "weight of fat depots", "setting": "[6]; 3 weeks, perigonadal, perirenal, subcutaneous, mesenteric", "value": "decreased the weight of all of the fat depots examined"},
      {"measurement": "fat mass (EchoMRI)", "setting": "[6]; end of 3 weeks", "value": "greatly reduced fat mass; also recorded: reduced fat mass more markedly"},
      {"measurement": "lean mass and water mass (EchoMRI)", "setting": "[6]; end of 3 weeks", "value": "increased only by E2; also recorded: did increase lean mass and water mass"},
      {"measurement": "triglyceride concentrations in blood", "setting": "[6]; end of 3 weeks", "value": "decreased triglyceride concentrations in blood"},
      {"measurement": "hepatocyte lipid content (Oil Red O)", "setting": "[6]; liver, 3 weeks", "value": "decreased hepatocyte lipid content"},
      {"measurement": "phosphorylation of Ser118 in ERα", "setting": "MCF-7 cells [7]", "value": "observed"},
      {"measurement": "mammary gland adiposity", "setting": "[8]", "value": "reduced the mammary gland adiposity"},
      {"measurement": "mammary gland ductal morphology", "setting": "[8]", "value": "elicited marked ductal growth"},
      {"measurement": "thymus size", "setting": "[8]", "value": "induced marked involution of the thymus"},
      {"measurement": "uterine weight", "setting": "[8]", "value": "effective in increasing growth of the uterus"},
      {"measurement": "uterine stimulation with ICI", "setting": "ovariectomized mice; plus antiestrogen ICI", "value": "blocked uterine stimulation"},
      {"measurement": "endothelial repair response with ICI 182,780", "setting": "ovariectomized mice; plus antiestrogen ICI 182,780", "value": "fully prevented"},
      {"measurement": "uterine weight", "setting": "ovariectomized mice; same animals as reendothelialization", "value": "greatly elevated by E2"}
    ]}
  ]
}
